In the supplement of paper PMC10307832:

Experiments:
Assay in all cases: relative viability (nuclei count vs DMSO), 5 days (fraction); higher = more cells survive
Dovitinib + OSI-027 = compound: CN1CCN(c2ccc3nc(-c4c(N)c5c(F)cccc5[nH]c4=O)[nH]c3c2)CC1 [Dovitinib] + COc1cccc2cc(-c3nc([C@H]4CC[C@H](C(=O)O)CC4)n4ncnc(N)c34)[nH]c12 [OSI-027] (partner 0.5 µM)
Method in brief: (§1)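 Lung cancer cell lines were seeded in 1536-well plates and dosed by pin tool the next day, with either a single drug or a fixed anchor-drug dose combined with five library-drug doses (not always all listed) spaced in √10 steps. Five days later, one step fixed the cells and stained their nuclei (final 0.05% Triton X-100, 1% formaldehyde, 1 ug/ml Hoechst), and nuclei were counted on 4× images. Relative viability is the nuclei count in treated wells divided by the count in vehicle wells, and each value is the median of duplicate plates.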

Dovitinib + Crizotinib = compound: CN1CCN(c2ccc3nc(-c4c(N)c5c(F)cccc5[nH]c4=O)[nH]c3c2)CC1 [Dovitinib] + C[C@@H](Oc1cc(-c2cnn(C3CCNCC3)c2)cnc1N)c1c(Cl)ccc(F)c1Cl [Crizotinib] (partner 1 µM)
Method in brief: as §1

Dovitinib + Linsitinib = compound: CN1CCN(c2ccc3nc(-c4c(N)c5c(F)cccc5[nH]c4=O)[nH]c3c2)CC1 [Dovitinib] + C[C@]1(O)C[C@@H](c2nc(-c3ccc4ccc(-c5ccccc5)nc4c3)c3c(N)nccn32)C1 [Linsitinib] (partner 1 µM)
Method in brief: as §1

Dovitinib + Tozasertib = compound: CN1CCN(c2ccc3nc(-c4c(N)c5c(F)cccc5[nH]c4=O)[nH]c3c2)CC1 [Dovitinib] + Cc1cc(Nc2cc(N3CCN(C)CC3)nc(Sc3ccc(NC(=O)C4CC4)cc3)n2)n[nH]1 [Tozasertib] (partner 0.1 µM)
Method in brief: as §1

Cell Line | relative viability (Dovitinib + OSI-027; first compound 0.02 µM) | relative viability (Dovitinib + OSI-027; first compound 0.06325 µM) | relative viability (Dovitinib + OSI-027; first compound 0.2 µM) | relative viability (Dovitinib + OSI-027; first compound 0.6325 µM) | relative viability (Dovitinib + OSI-027; first compound 2 µM) | relative viability (Dovitinib + Crizotinib; first compound 0.02 µM) | relative viability (Dovitinib + Crizotinib; first compound 0.06325 µM) | relative viability (Dovitinib + Crizotinib; first compound 0.2 µM) | relative viability (Dovitinib + Crizotinib; first compound 0.6325 µM) | relative viability (Dovitinib + Crizotinib; first compound 2 µM) | relative viability (Dovitinib + Linsitinib; first compound 0.02 µM) | relative viability (Dovitinib + Linsitinib; first compound 0.06325 µM) | relative viability (Dovitinib + Linsitinib; first compound 0.2 µM) | relative viability (Dovitinib + Linsitinib; first compound 0.6325 µM) | relative viability (Dovitinib + Linsitinib; first compound 2 µM) | relative viability (Dovitinib + Tozasertib; first compound 0.02 µM) | relative viability (Dovitinib + Tozasertib; first compound 0.06325 µM) | relative viability (Dovitinib + Tozasertib; first compound 0.2 µM) | relative viability (Dovitinib + Tozasertib; first compound 0.6325 µM) | relative viability (Dovitinib + Tozasertib; first compound 2 µM)
NCI-H1944 | 0.426 | 0.383 | 0.398 | 0.39 | 0.431 | 1.02 | 1.13 | 1.05 | 1.08 | 1.18 | 1.14 | 1.18 | 1.15 | 1.22 | 1.18 | 0.235 | 0.258 | 0.225 | 0.272 | 0.255
HCC-78 | 0.384 | 0.544 | 0.373 | 0.403 | 0.388 | 0.334 | – | 0.356 | 0.347 | 0.363 | 0.693 | – | 0.626 | 0.478 | 0.532 | 0.712 | 0.404 | 0.544 | 0.464 | 0.576
NCI-H2405 | 0.627 | 0.594 | 0.591 | 0.656 | 0.692 | 0.87 | 0.762 | 0.862 | 0.773 | 0.935 | 0.954 | 0.873 | 0.971 | 0.873 | 1.05 | 0.732 | 0.722 | 0.782 | 0.705 | 0.883
SK-LU-1 | 0.3 | 0.386 | 0.359 | 0.388 | 0.316 | 0.835 | 0.984 | 0.86 | 0.958 | 0.974 | 1.1 | 0.999 | 0.966 | 1.07 | 1.06 | 0.305 | 0.375 | 0.33 | 0.325 | 0.409
EMC-BAC-2 | 0.484 | 0.27 | 0.409 | 0.381 | 0.461 | 0.702 | 0.699 | 0.749 | 0.62 | 0.776 | 0.799 | 0.799 | 0.825 | 0.797 | 0.843 | 0.294 | 0.299 | 0.287 | 0.273 | 0.3
NCI-H596 | 0.644 | 0.776 | 0.669 | 0.808 | 0.779 | 0.989 | 0.916 | 1.11 | 1.14 | 0.984 | 1.03 | 1.01 | 1.09 | 0.96 | 0.954 | 0.985 | 0.982 | 0.963 | 0.838 | 0.754
LCLC-97TM1 | 0.77 | 0.486 | 0.561 | 0.59 | 0.544 | 0.332 | 0.305 | 0.372 | 0.275 | 0.253 | 0.216 | 0.21 | 0.201 | 0.152 | 0.213 | 0.243 | 0.207 | 0.231 | 0.195 | 0.235
H3255 | 0.637 | 0.601 | 0.627 | 0.716 | 0.585 | 0.898 | 0.903 | 0.854 | 0.929 | 0.871 | 1 | 0.937 | 1.01 | 1.02 | 1.02 | 0.741 | 0.617 | 0.766 | 0.638 | 0.629
